Experimental data as given in US6867320B2, “Substituted phenylalkanoic acid derivatives and use thereof” (Asahi Kasei Pharma Corporation, priority 2002, dated 2005).

system: PGE2 production from IL-1β-stimulated MG-63 cells; assay: Suppressing action on PGE2 production from IL-1β-stimulated MG-63 cells; type: cell-based; settings: Homo sapiens, IL-1β 1 ng/ml, 18 hours, read-out: PGE2 production suppression ratio
Description: 1. Suppressing Action on PGE2 Production from IL-1β-Stimulated MG-63 Cells (1) Method for Measurement
An action of suppressing PGE2 production caused by interleukin (IL) 1β as an inflammatory stimulant was studied by the following method. Cells of MG-63, which is a human osteosarcoma cell line (purchased from Dainippon Pharmaceutical), were suspended in EMEM medium (GIBCO) containing 10% fetal bovine serum (BioFluid), and then inoculated to each well of 96-well culture plate at a density of 2×10^4 cells/well and cultured overnight. The medium was changed to EMEM medium containing 0.5% fetal bovine serum, and then a test compound was added with each well. Human interleukin-1β (ENDOGEN) was further added as an inflammatory stimulant at a final concentration of 1 ng/ml. The cells were further cultured for 18 hours. The culture supernatant was collected, and the PGE2 concentration in the culture supernatant was measured by using EIA kit (CAYMAN). By using a well which was not added with the stimulant as a negative control and a well which was added only with the stimulant as a positive control, suppression ratios on PGE2 production were calculated from produced amounts of PGE2 in the well added with the test compound using the following equation. PGE2 production suppression ratio=[1−(C−B)/(A−B)]×100 • A: PGE2 production amount of positive control • B: PGE2 production amount of negative control • C: PGE2 production amount in well added with test compound

| Structure (SMILES) | inhibition at 0.4 µM [%] |
| --- | --- |
| O=C(O)CCc1ccc(OCC2CCCC2)c(-c2ccc3ccc(O)cc3c2)c1 [Compound 008, 3-[4-cyclopentylmethyloxy-3-(7-hydroxynaphthalen-2-yl)-phenyl]propionic acid] | ≥ 50 |
| CN(C)c1ccc2cc(-c3cc(CCC(=O)O)ccc3OCC3CCCC3)ccc2c1 [Compound 018, 3-{4-cyclopentylmethyloxy-3-[6-(N,N-dimethylamino)naphthalen-2-yl]phenyl}propionic acid] | ≥ 50 |
| NS(=O)(=O)Nc1ccc2cc(-c3cc(CCC(=O)O)ccc3OCC3CCCC3)ccc2c1 [Compound 020, 3-[4-cyclopentylmethyloxy-3-(6-sulfamoylaminonaphthalen-2-yl)phenyl]propionic acid] | ≥ 50 |
| CS(=O)(=O)c1ccc2cc(-c3cc(CCC(=O)O)ccc3OCC3CCCC3)ccc2c1 [Compound 022, 3-[4-cyclopentylmethyloxy-3-(6-methanesulfonylnaphthalen-2-yl)phenyl]propionic acid] | ≥ 50 |
| NS(=O)(=O)c1ccc2cc(-c3cc(CCC(=O)O)ccc3OCC3CCCC3)ccc2c1 [Compound 024, 3-[4-cyclopentylmethyloxy-3-(6-sulfamoylnaphthalen-2-yl)phenyl]propionic acid] | ≥ 50 |
| CNS(=O)(=O)c1ccc2cc(-c3cc(CCC(=O)O)ccc3OCC3CCCC3)ccc2c1 [Compound 026, 3-{4-cyclopentylmethyloxy-3-[6-(N-methylsulfamoyl)naphthalen-2-yl]phenyl}propionic acid] | ≥ 50 |
| CN(C)S(=O)(=O)c1ccc2cc(-c3cc(CCC(=O)O)ccc3OCC3CCCC3)ccc2c1 [Compound 028, 3-{4-cyclopentylmethyloxy-3-[6-(N,N-dimethylsulfamoyl)naphthalen-2-yl]phenyl}propionic acid] | ≥ 50 |
| O=C(O)CCc1ccc(OCC2CCCCC2)c(-c2ccc3cc(C(=O)O)ccc3c2)c1 [Compound 029, 3-[3-(6-carboxynaphthalen-2-yl)-4-cyclohexylmethyloxyphenyl]propionic acid] | ≥ 50 |
| CCCCOc1ccc(CCC(=O)O)cc1-c1ccc2ccccc2c1 [Compound 037, 3-[4-butyloxy-3-(naphthalen-2-yl)phenyl]propionic acid] | ≥ 50 |
| CC(C)Oc1ccc(CCC(=O)O)cc1-c1ccc2ccccc2c1 [Compound 041, 3-[4-isopropyloxy-3-(naphthalen-2-yl)phenyl]propionic acid] | ≥ 50 |
| O=C(O)CCc1ccc(OCCC2CCCCC2)c(-c2ccc3ccccc3c2)c1 [Compound 049, 3-[4-(2-cyclohexylethyloxy)-3-(naphthalen-2-yl)phenyl]propionic acid] | ≥ 50 |
| O=C(O)CCc1ccc(OCc2ccco2)c(-c2ccc3ccccc3c2)c1 [Compound 058, 3-{4-[(furan-2-yl)methyloxy]-3-(naphthalen-2-yl)phenyl}propionic acid] | ≥ 50 |
| O=C(O)CCc1ccc(OCc2cccnc2)c(-c2ccc3ccccc3c2)c1 [Compound 060, 3-{3-(naphthalen-2-yl)-4-[(pyridin-3-yl)methyloxy]phenyl}propionic acid] | ≥ 50 |
| CCc1ccc(CCOc2ccc(CCC(=O)O)cc2-c2ccc3ccccc3c2)nc1 [Compound 062, 3-{4-[2-(5-ethylpyridin-2-yl)ethyloxy]-3-(naphthalen-2-yl)phenyl}propionic acid] | ≥ 50 |
| Cc1oc(-c2ccccc2)nc1CCOc1ccc(CCC(=O)O)cc1-c1ccc2ccccc2c1 [Compound 064, 3-{4-[2-(5-methyl-2-phenyloxazol-4-yl)ethyloxy]-3-(naphthalen-2-yl)phenyl}propionic acid] | ≥ 50 |
| COc1ccc2cc(-c3cc(CCC(=O)O)ccc3OCC3CCCCC3)ccc2c1 [Compound 068, 3-[4-cyclohexylmethyloxy-3-(6-methoxynaphthalen-2-yl)phenyl]propionic acid] | ≥ 50 |
| O=C(O)CCc1ccc(OCC2CCCCC2)c(-c2cccc3ccccc23)c1 [Compound 070, 3-[4-cyclohexylmethyloxy-3-(naphthalen-1-yl)phenyl]propionic acid] | ≥ 50 |
| O=C(O)CCc1ccc(OCC2CCCCC2)c(-c2ccc3cc(OCCO)ccc3c2)c1 [Compound 071, 3-{4-cyclohexylmethyloxy-3-[6-(2-hydroxyethyloxy)naphthalen-2-yl]phenyl}propionic acid] | ≥ 50 |
| O=C(O)CCc1ccc(OCC2CCCCC2)c(-c2ccc3cc(OCC(=O)O)ccc3c2)c1 [Compound 072, 3-[3-(6-carboxymethyloxynaphthalen-2-yl)-4-cyclohexylmethyloxyphenyl]propionic acid] | ≥ 50 |

| Structure (SMILES) | inhibition at 0.4 µM [%] |
| --- | --- |
| CN(C)C(=O)COc1ccc2cc(-c3cc(CCC(=O)O)ccc3OCC3CCCCC3)ccc2c1 [Compound 074, 3-{4-cyclohexylmethyloxy-3-[6-(N,N-dimethylcarbamoylmethyloxy)-naphthalen-2-yl]phenyl}propionic acid] | ≥ 50 |
| CC(=O)Nc1ccc2cc(-c3cc(CCC(=O)O)ccc3OCC3CCCC3)ccc2c1 [Compound 077, 3-[3-(6-acetylaminonaphthalen-2-yl)-4-cyclopentylmethyloxy-phenyl]propionic acid] | ≥ 50 |
| CS(=O)(=O)Nc1ccc2cc(-c3cc(CCC(=O)O)ccc3OCC3CCCC3)ccc2c1 [Compound 085, 3-[4-cyclopentylmethyloxy-3-(6-methanesulfonylaminonaphthalen-2-yl)phenyl]propionic acid] | ≥ 50 |
| O=C(O)CCc1ccc(OCC2CCCC2)c(-c2ccc3ccc(NC(=O)c4ccco4)cc3c2)c1 [Compound 090, 3-(4-cyclopentylmethyloxy-3-{7-[(furan-2-carbonyl)amino]naphthalen-2-yl}phenyl)propionic acid] | ≥ 50 |
| O=C(O)CCc1cc(Cl)c(OCC2CCCC2)c(-c2ccc3ccccc3c2)c1 [Compound 092, 3-[3-chloro-4-cyclopentylmethyloxy-5-(naphthalen-2-yl)phenyl]propionic acid] | ≥ 50 |
| COC(=O)CCc1cc(N)c(OCC2CCCC2)c(-c2ccc3ccccc3c2)c1 [Compound 094, methyl 3-[3-amino-4-cyclopentylmethyloxy-5-(naphthalen-2-yl)phenyl]propionate] | ≥ 50 |
| O=C(O)Cc1ccc(OCC2CCCCC2)c(-c2ccc3ccccc3c2)c1 [Compound 096, 4-cyclohexylmethyloxy-3-(naphthalen-2-yl)phenylacetic acid] | ≥ 50 |
| Cc1c[nH]c2ccc(-c3cc(CCC(=O)O)ccc3OCC3CCCC3)cc12 [Compound 112, 3-[4-cyclopentylmethyloxy-3-(3-methyl-1H-indol-5-yl)phenyl]propionic acid] | ≥ 50 |
| O=C(O)CCc1ccc(OC2CCCC2)c(-c2cccc3[nH]ccc23)c1 [Compound 118, 3-[4-cyclopentyloxy-3-(1H-indol-4-yl)phenyl]propionic acid] | ≥ 50 |
| O=C(O)CCc1ccc(OC2CCCCC2)c(-c2cccc3[nH]ccc23)c1 [Compound 120, 3-[4-cyclohexyloxy-3-(1H-indol-4-yl)phenyl]propionic acid] | ≥ 50 |
| Cn1ccc2c(-c3cc(CCC(=O)O)ccc3OCC3CCCC3)cccc21 [Compound 122, 3-[4-cyclopentylmethyloxy-3-(1-methyl-1H-indol-4-yl)phenyl]propionic acid] | ≥ 50 |
| Cn1ccc2c(-c3cc(CCC(=O)O)ccc3OC3CCCC3)cccc21 [Compound 124, 3-[4-cyclopentyloxy-3-(1-methyl-1H-indol-4-yl)phenyl]propionic acid] | ≥ 50 |
| O=C(O)CCc1ccc(OCC2CCCCC2)c(-c2ccc3cc[nH]c3c2)c1 [Compound 128, 3-[4-cyclohexylmethyloxy-3-(1H-indol-6-yl)phenyl]propionic acid] | ≥ 50 |
| CCCCOc1ccc(CCC(=O)O)cc1-c1ccc2[nH]ccc2c1 [Compound 130, 3-[4-butyloxy-3-(1H-indol-5-yl)phenyl]propionic acid] | ≥ 50 |
| Cc1ccccc1COc1ccc(CCC(=O)O)cc1-c1ccc2[nH]ccc2c1 [Compound 134, 3-[3-(1H-indol-5-yl)-4-(2-methylphenylmethyloxy)phenyl]propionic acid] | ≥ 50 |
| Cc1cccc(COc2ccc(CCC(=O)O)cc2-c2ccc3[nH]ccc3c2)c1 [Compound 136, 3-[3-(1H-indol-5-yl)-4-(3-methylphenylmethyloxy)phenyl]propionic acid] | ≥ 50 |
| Cc1ccc(COc2ccc(CCC(=O)O)cc2-c2ccc3[nH]ccc3c2)cc1 [Compound 138, 3-[3-(1H-indol-5-yl)-4-(4-methylphenylmethyloxy)phenyl]propionic acid] | ≥ 50 |
| O=C(O)CCc1ccc(OCc2cccc(F)c2)c(-c2ccc3[nH]ccc3c2)c1 [Compound 144, 3-[4-(3-fluorophenylmethyloxy)-3-(1H-indol-5-yl)phenyl]propionic acid] | ≥ 50 |
| O=C(O)CCc1ccc(OCc2ccccc2C(F)(F)F)c(-c2ccc3[nH]ccc3c2)c1 [Compound 170, 3-{3-(1H-indol-5-yl)-4-[2-(trifluoromethyl)phenylmethyloxy]-phenyl}propionic acid] | ≥ 50 |
